Laboratory results taken from patent publication US7776826B2, “Method for fostering bone formation and preservation” (Unigene Laboratories, Inc., priority 2004, dated 2010).

Columns and labels:
Format in all cases: in vivo, rat
Male Sprague-Dawley rats [1] = test: High resolution radiograms of left and right femurs, Groups A-J; conditions: left femur with bmx, 21 days
Experimental: FIG. 3 (a-e) present high resolution radiograms of, respectively, the left (ablated) and right (non-ablated) femurs of some of the rats described with regard to FIGS. 1 and 2 above. (See discussion below of Tables 1 and 2) The radiographs were taken three weeks (i.e., 21 days) following commencement of treatment. The rats were treated as follows: (a) control (i.e., no surgery); (b) sham (i.e., surgery without marrow ablation); (c) mechanical bone marrow ablation (bmx)+phosphate buffer saline (PBS) administration daily for 21 days; (d) bmx followed by parathyroid hormone (PTH[1-34]-NH2) administered daily for 21 days; and (e) bmx followed by parathyroid hormone (PTH[1-34]-NH2) administered daily for 7 days and then salmon calcitonin given daily from days 7-21. A marking of bmx with regard to a right (non-ablated) femur means that
FIG. 3 presents a set of high resolution radiograms of the entire left and right femurs from rats taken from some of the groups A-J described above. In each of the views shown, the treatment modality is indicated in the lower left corner of the radiogram. The following abbreviations are used: Control=no surgery; Sham=surgery without any bone marrow ablation; BMX=bone marrow ablation; PBS=phosphate buffer saline; PTH=parathyroid hormone (PTH[1-34]-NH2); and CT= salmon calcitonin. […]

Male Sprague-Dawley rats [2] = test: MicroCT analysis of left femoral shafts, Groups A-J; conditions: left femoral shaft with bmx
Text: FIG. 6 illustrates the results of Micro Computerized Tomography (MicroCT) analyses of the left (ablated) femoral shafts of the rats which are the subjects of FIGS. 3-4. The abbreviations mean the same as in FIGS. 3-5;
FIG. 6 illustrates the results of a Micro Computerized Tomography (MicroCT) analysis of representative bones taken from the left femoral shaft of control and treated rats. The modality of treatment is set forth in the lower left corner of each of the views, and the abbreviations used therein are the same as those which appear in FIGS. 3-5. The Figure provides a view through a section of each such bone shaft.
The bones were thereafter subjected to a variety of sample analysis techniques. These included X-ray analysis wherein the femurs were X-rayed in individually sealed plastic bags; PIXIMUS analysis using a Lunar PIXIMUS scanner to measure bone mineral density in the bone marrow cavity of the femurs; MicroCT analysis; and blood analysis for osteocalcin, PTH, CT, NTX and growth factors.

Male Sprague-Dawley rats [3] = test: Von Kossa stained sections of left femurs subjected to bmx; conditions: left femur with bmx, PTH daily for 21 days
Text: FIG. 8 illustrates sections (at 4× magnification) of undecalcified left femurs, subjected to bone marrow ablation (bmx), wherein the bone sections were stained with Von Kossa stain;
FIG. 8 provides views of stained and […] bone sections of the left femur of representative rats subjected to the following treatment modalities: Control day 0; Control day 21; Sham day 21; bmx day 0; bmx+PBS daily for 7 days; bmx+PBS daily for 14 days; bmx+PBS daily for 21 days; bmx+ parathyroid hormone (PTH[1-34]NH2) daily for 7 days; bmx+PTH daily for 14 days, and bmx+PTH daily for 21 days. […] These views provide substantial additional evidence of the efficacy of the method of the present invention.

Male Sprague-Dawley rats [4] = test: MicroCT analysis of femoral shafts, Groups K-R; conditions: left femoral shaft with bmx, agent for 21 days
Text: FIG. 13(a-b) illustrate the results of Micro Computerized Tomography (MicroCT) analysis of the left (ablated) and right (non-ablated) femoral shafts of the rats of Groups K-R. The abbreviations are the same as those used in FIGS. 10-12;
FIG. 13 (a-b) provides a comparison between Micro Computerized Tomography (MicroCT) analyses of bone samples taken from the left femoral shaft (FIG. 13a) and the right femoral shaft (FIG. 13b) of rats treated in the manner indicated in FIGS. 10-12. As in the other cases discussed above, the most significant amount of new bone growth is found in the shaft of the left femur, since this shaft was subjected to the bmx treatment. […] In contrast, the right femoral shaft sections show very little or no increase in bone growth at all.

[5] = tested on: osteoporotic female Sprague-Dawley rats; test: Lumbar vertebral bone mineral density and bone formation rate in ovariectomized osteoporotic rats, without mechanical induction; conditions: OVX rats, 4 weeks subcutaneous treatment, no mechanical induction
Experimental: FIG. 15 is a bar graph comparing the Lumbar Vertebral Bone Mineral Density obtained in osteoporotic female Sprague-Dawley rats wherein the osteoporosis was induced via an ovariectomy. The rats were treated with (1) PTH[1-31]-NH2; (2) PTH[1-34]-NH2; and PTH[1-34]-OH; and
FIG. 16 is a bar graph comparing the Lumbar Vertebral Bone Formation Rate obtained in osteoporotic female Sprague-Dawley rats wherein the osteoporosis was induced via an ovariectomy. The rats were treated with (1) PTH[1-31]-NH2; (2) PTH[1-34]-NH2; and PTH[1-34]-OH.
A series of experiments was performed comparing (1) lumbar vertebral bone mineral density, and (2) lumbar vertebral bone formation rate achieved with PTH[1-31]-NH2 and PTH[1-34]-OH compared to the preferred PTH[1-34]-NH2 analog discussed above in the absence of the mechanical induction step of the invention. The study involved a four-week treatment of female Sprague-Dawley rats at 10 months of age, and 6 months post-ovariectomy (“OVX”), which induces osteoporosis, with one of the three above-noted parathyroid hormone truncates. The rats were randomized into the following groups: sham OVX, OVX+ vehicle, OVX+PTH [1-31]-NH2 or PTH [1-34]-NH2 (obtained from Unigene Laboratories, Inc.) at 2.5, 10 or 40 μg/kg/day subcutaneous, or PTH[1-34]-OH (obtained from Bachem) at 10 μg/kg/day subcutaneous. After 4 weeks of treatment, the right femur of each animal was analyzed by DEXA and bone histomorphometry. FIG. 15 is a bar graph providing a comparison of the lumbar vertebral bone mineral density achieved with PTH[1-31]-NH2, PTH[1-34]-NH2 and PTH[1-34]-OH. FIG. 16 is a bar graph comparing the lumbar vertebral formation rates achieved with these same truncates. […] Because of the similarity of anabolic action among the above-discussed parathyroid hormones, it is therefore reasonable to expect that all known PTH analogs will advantageously function in the desired manner in the method of the present invention.

In the case of PTH[1-34]-NH2, the “bone growth on radiograms, in words” value (Male Sprague-Dawley rats [1]) is reported as “greatest bone growth”, the “new bone growth in MicroCT, in words” value (Male Sprague-Dawley rats [2]) is reported as “most extensive new bone growth” and the “bone growth within marrow cavity on stained sections, in words” value (Male Sprague-Dawley rats [3]) is reported as “greatest such increase”. The “new bone growth in MicroCT, in words” value (Male Sprague-Dawley rats [4]) was “significant degree of improvement” and the “bone anabolic activity (lumbar vertebral bone mineral density and bone formation rate)” value [5] was “substantially equivalent”.
